The subject of test [1] is cramps induced in the mouse by phenylbenzoquinone. Briefly: Cramps induced with phenylbenzoquinone (SIEGMUND test), analgesic activity, per os. It counts as in vivo, mouse (male CD-1). Particulars: po, read-out: PBO Whrithing, % inhibition (% decrease in the number of cramps compared with the control animals). As for the experimental part:
2) Cramps induced with phenylbenzoquinone
Male CD-1 mice randomly divided into groups of 5 receive the test products per os 30 minutes before the intraperitoneal injection of 0.25 cm3 of a 0.01% solution of phenylbenzoquinone in a 95:5 mixture of water and ethanol.
The number of cramps is counted between the 5th and the 15th minute after the injection of phenylbenzoquinone.
(§1) The percentage activity was evaluated for each compound (% decrease in the number of cramps in the treated animals compared with the control animals).

The test system of test [2] is abdominal cramps induced in the rat by acetic acid. Briefly: Cramps induced with acetic acid (KOSTER test), analgesic activity, per os. It counts as in vivo, rat (male Wistar). The note with it: po, read-out: Acetic Acid Writhing, % inhibition (% decrease in the number of cramps compared with the control animals). As for the experimental part: 1) Cramps induced with acetic acid
Male Wistar rats randomly divided into groups of 5 (weight 150±10 g) receive the test products per os 30 minutes before the intraperitoneal injection of 1 cm^3 of 1% acetic acid.
The number of cramps is counted during the 25 minutes which follow the injection.
as §1
On the technique in general: An intraperitoneal irritant provokes the stretching counted in writhing tests.

Setting [3] is: mouse, 50 mg/kg per os, 30 minutes before phenylbenzoquinone, count 5th to 15th minute.
The mark [4] stands for this setting: rat, 50 mg/kg per os, 30 minutes before acetic acid, 25 minutes count.

Usually inhibition stands for how much of the control response was suppressed.

The structures appear in SMILES notation. Read-outs that look alike come from different tables or passages of the source.

`CN1C(=O)Cc2cc(CN3CCN(c4ccccc4)CC3)cnc21` [Example 46, 1,3-DIHYDRO-5-(4-PHENYLPIPERAZIN-1-YLMETHYL)-1-METHYL-2H-PYRROLO[2,3-b]PYRIDIN-2-ONE]: the inhibition at 50 mg/kg in test [1] (setting [3]) was found to be 67%. Take `CC(=O)c1cnc2c(c1)CC(=O)N2C` [Example 13, 1,3-DIHYDRO-1-METHYL-5-ACETYL-2H-PYRROLO[2,3-b]PYRIDIN-2-ONE]: the inhibition at 50 mg/kg in test [2] (setting [4]) came to 96%. With `Cn1c(=O)oc2cc(C(=O)CN3CCN(c4ccccc4)CC3)cnc21` [Example 22, 3-METHYL-6-[2-(4-PHENYLPIPERAZIN-1-YL)ACETYL]OXAZOLO[4,5-b]PYRIDIN-2(3H)-ONE], the inhibition at 50 mg/kg is 53% in test [1] (setting [3]) and 97% in test [2] (setting [4]). For `CN1C(=O)Cc2cc(C(=O)CN3CCN(c4ccccc4)CC3)cnc21` [Example 47, 1,3-DIHYDRO-5-[2-(4-PHENYLPIPERAZIN-1-YL)ACETYL)-1-METHYL-2H-PYRROLO[2,3-b]PYRIDIN-2-ONE], in test [1] (setting [3]), the inhibition at 50 mg/kg was determined as 90%. For `Cn1c(=O)oc2cc(C(O)CN3CCN(c4ccccc4)CC3)cnc21` (stereo not drawn) [Example 24, 3-METHYL-6-[2-(4-PHENYLPIPERAZIN-1-YL)-1-HYDROXYETHYL]OXAZOLO[4,5-b]PYRIDIN-2(3H)-ONE], the inhibition at 50 mg/kg in test [1] (setting [3]) worked out at 97%; in test [2] (setting [4]), 86%.

For the molecule `CC(=O)Oc1ccccc1C(=O)O` [Aspirin, reference compound], the inhibition at 50 mg/kg in test [1] (Mus musculus) is 62%; in test [2] (Rattus norvegicus), 56%. For the molecule `Cn1c(=O)oc2cc(C(=O)c3ccccc3)cnc21` [Example 5, 3-METHYL-6-BENZOYLOXAZOLO[4,5-b]PYRIDIN-2(3-ONE], the inhibition at 50 mg/kg in test [1] (setting [3]) and in test [2] (setting [4]) was 85% in each case.

Take `O=C(c1ccccc1)c1cnc2[nH]c(=O)oc2c1` [Example 6, 6-BENZOYLOXAZOLO[4,5-b]PYRIDIN-2(3H)-ONE]: the inhibition at 50 mg/kg in test [2] (setting [4]) stood at 88%.

In the case of `Cn1c(=O)oc2cc(CN3CCN(c4ccccc4)CC3)cnc21` [Example 16, 3-METHYL-6-[(4-PHENYLPIPERAZIN-1-YL)METHYL]OXAZOLO[4,5-b]PYRIDIN-2(3H)-ONE], the inhibition at 50 mg/kg amounted to 57% in test [1] (setting [3]) and 98% in test [2] (setting [4]). With `Cn1c(=O)oc2cc(CCCN3CCN(c4ccccc4)CC3)cnc21` [Example 20, 3-METHYL-6-[3-(4-PHENYLPIPERAZIN-1-YL)PROP-1-YL]OXAZOLO[4,5-b]PYRIDIN-2(3H)-ONE], the inhibition at 50 mg/kg in test [1] (setting [3]) is 100%.

The values are drawn from patent US5767128A, “1,3-dihydro-2H-pyrrolo[2,3-b]pyridin-2-one compounds” (Adir et Compagnie, priority 1994, dated 1998).
